Results from patent US7052859B2, “MUCIN 4 expression as a marker for pancreatic cancer” (The Board of Regents of the University of Nebraska, priority 2000, dated 2006).
Ends that are not written are not given here.

B1: TGF-β2: growth factor from R&D systems; produced and secreted by pancreatic cancer cell lines (protein, UniProt P61812 303-414, looked up)
Transforming growth factor …: ALDAAYCFRNVQDNCCLRPLYIDFKRDLGWKWIHEPKGYNANFCAGACPYLWSSDTQHSRVLSLYNTINPEASASPCCVSQDLEPLTILYYIGKTPKIEQLSNMIVKSCKCS

Tests used:
MUC4 peptides = experiment: Immunogenicity of KLH-conjugated MUC4 peptides in rabbits (serum antibody titre); assay type: in vivo, rabbit; details: ten weeks after immunization with KLH-conjugated peptide
Method: The present invention also provides antibodies capable of immunospecifically binding to MUC4. Polyclonal antibodies directed toward human MUC4 protein may be prepared according to standard methods. In a preferred embodiment, monoclonal antibodies are prepared, which react immunospecifically with the various epitopes of the MUC4 protein. Monoclonal antibodies have been prepared according to general methods of Kohler and Milstein, following standard protocols.

[1] = tested on: MUC4 expression in pancreatic cancer cells; details: previous work (31); cited from earlier work
[2] = tested on: MUC4 mRNA expression in PBMC; experiment: MUC4 mRNA expression (RT-PCR) in PBMC from healthy volunteers after incubation with cytokines, growth factors or mitogens; assay type: cell-based, human; details: incubated 24 and 48 hours, serum free, retinoic acid 100 nM, 1 μM, TGF-β2 10, 20 and 200 pg/ml
Method: Freshly prepared PBMC (10×10^6 cells) from healthy volunteers were stimulated with PHA (10 μg/ml) and LPS (20 μg/ml, all from Sigma) for 12 and 24 hours. To study the effect of different cytokines and growth factors on the MUC4 mRNA expression, 10 million PBMC were incubated with TGF-β1 (10; 20 and 200 pg/ml), TGF-β2 (10; 20 and 200 pg/ml) (all from R&D systems, Minneapolis, Minn.), retinoic acid (RA) (100 nM; 1 μM) (Sigma), GM-CSF (100 U/ml) (Immunex Corp. Seattle, Wash.), IL-1β (10 ng/ml), IL-6 (10 ng/ml), IL-9 (50 ng/ml), IFNγ (10 and 20 ng/ml), TNFα (10 and 50 ng/ml) or with IFNγ (10 and 20 ng/ml) in combination with TNFα (10 and 50 ng/ml) (all from PeproTech Inc., Rocky Hill, N.J.) for 24 and 48 hours under serum free conditions.
The single step RNA isolation method was used for RNA preparation as previously described (28,29). In brief, cells were homogenized in a denaturing solution containing 4 M guanidine thiocyanate. The homogenate was mixed sequentially with 2 M sodium acetate (pH 4), phenol and chloroform/isoamyl alcohol. […] The RNA pellet was then resuspended in diethyl pyrocarbonate (DEPC)-treated water, and the final RNA concentration was determined spectrophotometrically by measuring the absorbance at 260 nm and 280 nm (DU 640B, Beckman Coulter, Fullstone Calif.). […]

Row | Molecule | antibody titre of rabbit sera reacting specifically with the peptide (MUC4 peptides) | MUC4 expression after treatment [1] | induction of MUC4 mRNA expression in PBMC [2]
1 | ATYRPPQPAWMFGD (also: KLH conjugate; listed as Homo sapiens) [MUC4 α, MUC4 peptide synthesized and conjugated to the KLH protein as an immunogen] | 47,338 units |  | 
2 | GARFSYFLNSAEALP (also: KLH conjugate; listed as Homo sapiens) [MUC4 β, MUC4 peptide synthesized and conjugated to the KLH protein as an immunogen] | 31,108 units |  | 
3 | B1 |  | resulted in MUC4 expression | neither incubation with retinoic acid and TGF-β2 nor the activation of T-cells and B-cells with PHA and LPS or incubation with various other cytokines induced MUC4 mRNA expression
